Measurements: patent US10617662B2, “Autophagy activation-induced compound for improving skin inflammation for aging” (INCOSPHARM CORPORATION, priority 2017, dated 2020)

Tests used:
[1] = system: LC3 (light chain 3) protein; assay: Western blot for LC3 protein, autophagy activation; format: cell-based, human; details: HaCaT cells; 20 uM dilution, 1 ml added to 1 ml medium; FIG. 1
Protocol: In order to analyze increased intracellular autophagy activation by treatment of Compound 8 of the present invention, a western blot analysis for LC3 (light chain 3) protein was performed.
As a specific experimental method, HaCaT, human epidermal keratinocytes were seeded in on a 6 well plate at a density of 3×10^5 cells, and cultured in DMEM (Dulbecco's Modified Eagle Media, Gibco BRL) in an incubator under 37° C. and 5% CO2 for 24 hours. Compound 8 of the present invention was dissolved in DMSO at a concentration of 10 mM to be a concentrate, and diluted with a medium to be at a concentration of 20 uM. Then in a state where 1 ml of medium was first in each well, 1 ml of each diluted solution was added thereto for treatment, and cultured for a certain period, and after completing the culture, the medium was removed, and then cells were disrupted with a SDS sample buffer, and each protein was separated by SDS-PAGE gel electrophoresis, and transferred to a PVDF (polyvinylidene fluoride) membrane. Thereafter, non-specific binding was eliminated using a blocking buffer, and an antibody against LC3 protein and a HRP-bound secondary antibody (anti-rabbit IgG HRP (sigma)) were reacted, and then an enhanced chemiluminescence (ECL) reaction using an ECL prime kit (Amersham Pharmacia) was carried out, thereby performing a ChemiDoc analysis.

[2] = system: IL-36G (interleukin 36, gamma); assay: RT-PCR of psoriasis-related gene IL-36G; format: cell-based, human; details: HEKa cells, 20 uM, FIGS. 2 and 3
Protocol: (§1) A psoriasis-related genes were selected from the cDNA array result in which Compound 8 of the present invention was treated in HaCaT cells. In order to analyze whether Compound 8 has an effect on psoriasis alleviation, RT-PCR analysis for IL-36′ (interleukin 36 gamma), KLK7 (Kallikrein-related peptidase 7), OASL (2′-5′-Oligoadenylate Synthetase Like) and ALOX12B (Arachidonate 12-lipoxygenase, 12R type) which are very closely related to psoriasis was carried out. Further, KRT16 (Keratin 16), KRT6 (Keratin 6) and KRT1 (Keratin 1), known as psoriasis-related proliferation, differentiation markers were confirmed by a western blot analysis. As the specific experimental method, HEKa cells (Human Epidermal keratinocytes, adult), human-derived epidermal keratinocytes were seeded on a 24 well plate at a density of 1×10^5 cells, and cultured in an EpiLife medium (1× Human keratinocyte Growth supplement, 1× antibiotics) in an incubator under 37° C. and 5% CO2 for 24 hours. […]

[3] = system: KRT6 (Keratin 6); assay: Western blot of proliferative marker KRT6; format: cell-based, human; details: FIG. 4
Protocol: as §1

[4] = system: KRT1 (Keratin 1); assay: Western blot of differentiation marker KRT1; format: cell-based, human; details: FIG. 4
Protocol: as §1

[5] = system: IL-6 (interleukin 6); assay: ELISA for IL-6 in HEKa cells under inflammatory condition; format: cell-based, human; details: TNF-α/IFN-γ or IL-17A/IL-22 induced inflammatory condition, 10·M, FIGS. 5 to 7
Protocol: (§2) In order to analyze whether treatment of Compound 8 has an atopy alleviation effect, ELISA (enzyme-linked immunosorbent assay) for IL-6 (interleukin 6) and IL-8 (interleukin 8) which are very closely related to atopic inflammation and psoriasis was performed.
(§3) As the specific experimental method, HEKa cells (Human Epidermal keratinocytes, adult), human-derived epidermal keratinocytes were seeded on a 24 well plate at a density of 1×10^5 cells, and cultured in an EpiLife medium (1× Human keratinocyte Growth supplement, 1× antibiotics) in an incubator under 37° C. and 5% CO2 for 24 hours.
(§4) After culturing, while an inflammatory condition was induced by treatment with either TNF-α (Tumor necrosis factor-α)/IFN-γ (interferon-γ) or IL-17A (interleukin-17A)/IL-22 (interleukin-22) in each well, further treatment was performed with Compound 8 of the present invention at a concentration of 10·M, and then the cells were incubated for a certain period. After completing culturing, media were collected, and then ELISA for each IL-6 and IL-8 was carried out.

[6] = system: IL-8 (interleukin 8); assay: ELISA for IL-8 in HEKa cells under inflammatory condition; format: cell-based, human; details: TNF-α/IFN-γ or IL-17A/IL-22 induced inflammatory condition, 10·M, FIGS. 5 to 7
Protocol: as §2, §3, §4

[7] = system: IL-24 (interleukin-24); assay: Cytokine gene expression, IL-24, TNFα/IFN-γ induced inflammatory condition; format: cell-based, human; details: FIG. 8
[8] = system: CXCL2 (Chemokine (C-X-C motif) ligand 2); assay: Cytokine gene expression, CXCL2, TNFα/IFN-γ induced inflammatory condition; format: cell-based, human; details: FIG. 8
[9] = system: IL-8 (interleukin-8); assay: Cytokine gene expression, IL-8, IL-17A/TNF-α condition; format: cell-based, human; details: FIG. 9
[10] = system: psoriasis animal model induced by imiquimod 5% cream; assay: Psoriasis animal model (imiquimod), clinical findings: erythema; format: in vivo, BALB/c mice
Protocol: (§5) In order to confirm the psoriasis treatment effect by Compound 8 of the present invention, dorsal hair of 8-week-old BALB/c mice (female) was removed using hair removal cream (Veet®, Oxy Reckitt Benckiser, Cedex, France), and subsequently imiquimod 5% cream (Aldara®; 3M Pharmaceuticals, UK; 62.5 mg) was applied on the back and both ears of the mice twice in the morning and in the afternoon (Sensitization; Day 0). Then, after a barrier recovery period of 2 days, imiquimod 5% cream (62.5 mg/day) was applied repeatedly for 7 days (Induction stage; Day 2 -Day 8), thereby inducing the psoriasis animal model.
After inducing the psoriasis animal model, Compound 8 of the present invention dissolved in ethanol (0.5%) and cream containing Compound 8 of the present invention (The same composition as that of the cosmetic composition of Example 14 […]; […]). An untreated control group and a disease control group (vehicle) were treated with cream not containing Compound 8 of the present invention (cosmetic composition of Comparative Example 2) and ethanol, and during the treatment period, imiquimod 5% cream was applied thereon every other day, thereby maintaining psoriasis.

[11] = system: psoriasis animal model induced by imiquimod 5% cream; assay: Psoriasis animal model, ear thickness; format: in vivo, BALB/c mice; details: ears treated together with imiquimod; digital caliper; FIG. 18
Protocol: as §5
There was no treatment on the left ear of the untreated control group, and the right ear was treated with cream not containing imiquimod and ethanol. The left ear of the experimental groups was treated only with imiquimod and ethanol, whereas the right ear of the experimental groups was treated with either Compound 8 or Compound 8 cream of the present invention together with imiquimod, and such method is specifically shown in FIG. 12.
When the animals were slaughtered, the thickness of the central part of both ears was measured using a digital caliper (Digital caliper, Marathon Inc. Belleville, ON, Canada).

In the case of `CCCCCCCCCCCCCCCC(=O)NCCCC[C@H](NC(=O)[C@H](CCCCN(CC(=O)O)CC(=O)O)N(CC(=O)O)CC(=O)O)C(=O)O` [Compound 8], the “production of LC3-II” value [1] is reported as “increased”, the “expression level of IL-36G gene” value [2] is reported as “significantly decreased” and the “KRT6 (proliferative marker) level” value [3] is reported as “reduced”. The “KRT1 (differentiation marker) level” value [4] was “increased”, the “secretion of IL-6” value [5] was “significantly reduced” and the “secretion of IL-8” value [6] was “significantly reduced”. For the same compound, the “expression level of IL-24” value [7] was “reduced”, the “expression level of CXCL2” value [8] was “reduced” and the “expression level of IL-8” value [9] was “reduced”. The “erythema on day 14, reduction level” value ([10]; day 14 after treatment, FIG. 14) was “very remarkable”, the “erythema increased by imiquimod” value ([10]; topical on back, 0.5% in ethanol or 0.5% cream, treatment for 6 days, FIG. 13) was “significantly reduced” and the “thickness of the right (treated) ear compared with the left ear treated with 5% imiquimod and ethanol” value [11] was “significant thickness reduction”.
